Reference: patent publication US8697692B2, “Pyrrolo [3,2-c] pyridine-4-one 2-indolinone protein kinase inhibitors” (Shanghai Hengrui Pharmaceutical Co., Ltd., priority 2006, dated 2014)

What was measured:
[1] = biological target: T1, HER-2/ErbB2 kinase (Homo sapiens, UniProt P04626); test: HER-2 Kinase Assay (ELISA); format: biochemical; details: 20 μM ATP, 25° C. 60 minutes
T1 construct: purchased Invitrogen corporation #PV3366
Protocol: An enzyme linked immunosorbent assays (ELISA) was conducted to measure the kinase activity of HER-2 in vitro.
a. Wash Buffer (PBS-T Buffer): 1×PBS (137 mM NaCl; 2.7 mM KCl, 4.3 mM Na2HPO4, 1.4 mM KH2PO4, adjust the pH to 7.2) and 0.05% Tween-20.
b. 1% Bovine Serum Albumin (BSA, Calbiochem #136593) in PBS-T.
c. Stop Buffer: 50 mM EDTA, pH 8.0.
d. DELFIA® Europium-labeled Anti-mouse IgG (PerkinElmer Life Sciences #AD0124).
e. DELFIA® Enhancement Solution (PerkinElmer Life Sciences #1244-105).
f. DELFIA® Streptavidin coated, 96-well, yellow plate (PerkinElmer Life Sciences #AAAND-0005).
g. HER-2/ErbB2 kinase (Invitrogen corporation #PV3366).
h. 10 mM ATP solution (Cell signaling technology #9804).
i. FLT3 (Tyr589) Biotinylated Peptide (Cell signaling technology #1305).
j. Phospho-Tyrosine Mouse mAb (P-Tyr-100) (Cell signaling technology #9411).
k. HTScan™ Tyrosine Kinase Buffer (4×)
(Cell signaling technology #9805).
l. 1.25 M DTT (1000×) (Cell signaling technology).
The following protocol was used:
1. Dilute test compound with DMSO to the desired final assay concentration. Add 1 μl test compound for every assay, to the negative control.
2. Dilute 6 μM substrate peptide (Tyr589) 1:1 with dH2O, add 15 μl to every assay.
3. Immediately transfer HER-2 enzyme from −80° C. to ice. Allow enzyme to thaw on ice.
4. Take 4.5 μg HER-2 enzyme to the enzyme tube.
5. Add 10 μl of DTT (1.25 M) to 2.5 ml of 4×HTScan™ Tyrosine Kinase Buffer (240 mM HEPES pH 7.5, 20 mM MgCl2, 20 mM MnCl2, 12 μM Na3VO4) to make DTT/Kinase buffer.
6. Transfer 0.75 ml of DTT/Kinase buffer to each enzyme tube to make 4× reaction cocktail. Add 7.5 μl 4× reaction cocktail to every assay.
7. Add 4 μl ATP (10 mM) to 496 μl dH2O, take 7.5 μl for every assay. Final Assay Conditions for a 30 μl Reaction
Incubate reaction tube at 25° C. for 60 minutes. 9. Add 30 μl/assay stop buffer (50 mM EDTA, pH 8.0) to stop the reaction. 10. Transfer 25 μl of each reaction and 75 μl dH2O/well to a 96-well streptavidin coated plate and incubate, with shaking at room temperature for 60 minutes. 11. Wash three times with 200 μl/well PBS-T buffer. Pat plate on paper towel to remove excess liquid. 12. Dilute primary antibody, Phospho-Tyrosine mAb (P-Tyr-100), 1:1000 in PBS-T buffer with 1% BSA. Add 100 μl diluted primary antibody to each well. 13. Incubate, with shaking at room temperature for 60 minutes. 14. Wash as described above in step 11. 15. Dilute Europium labeled anti-mouse IgG 1:500 in PBS-T buffer with 1% BSA. Add 100 μl diluted antibody to each well. 16. Incubate, with shaking at room temperature for 30 minutes. 17. Wash five times with 200 μl/well PBS-T buffer. Pat plate on paper towel to remove excess liquid. 18. Add 100 μl/well DELFIA® Enhancement Solution. 19. Incubate, with shaking at room temperature for 5 minutes. 20. Detect 615 nm fluorescence emission with appropriate Time-Resolved Plate Reader.
Calculate the inhibition rate: IR (%)=100−100*(X−B)/(N−B)
X=the fluorescence value of the well contained test compound
The IC50 value can be derived from the IRs of compounds at different concentration gradients.

[2] = system: A431 cell; test: Cell Proliferation Inhibition EGFR Assay (SRB method); format: cell-based, homo sapient; details: Homo sapiens, A-431; A431 cells, 72 hours exposure, Sulforhodamine B; read-out: IC50 (A431)
Outline: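 A431 cells grown to ~85% confluence, then exposed 72 hours at 37° C to 6 to 7 serial concentrations of compound in DMEM/F12 + 10% FBS, final DMSO ≤0.5%. Growth measured by TCA fixation and sulforhodamine B staining; IC50 calculated from inhibition rates.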

T1 sequence (P04626 23-1255): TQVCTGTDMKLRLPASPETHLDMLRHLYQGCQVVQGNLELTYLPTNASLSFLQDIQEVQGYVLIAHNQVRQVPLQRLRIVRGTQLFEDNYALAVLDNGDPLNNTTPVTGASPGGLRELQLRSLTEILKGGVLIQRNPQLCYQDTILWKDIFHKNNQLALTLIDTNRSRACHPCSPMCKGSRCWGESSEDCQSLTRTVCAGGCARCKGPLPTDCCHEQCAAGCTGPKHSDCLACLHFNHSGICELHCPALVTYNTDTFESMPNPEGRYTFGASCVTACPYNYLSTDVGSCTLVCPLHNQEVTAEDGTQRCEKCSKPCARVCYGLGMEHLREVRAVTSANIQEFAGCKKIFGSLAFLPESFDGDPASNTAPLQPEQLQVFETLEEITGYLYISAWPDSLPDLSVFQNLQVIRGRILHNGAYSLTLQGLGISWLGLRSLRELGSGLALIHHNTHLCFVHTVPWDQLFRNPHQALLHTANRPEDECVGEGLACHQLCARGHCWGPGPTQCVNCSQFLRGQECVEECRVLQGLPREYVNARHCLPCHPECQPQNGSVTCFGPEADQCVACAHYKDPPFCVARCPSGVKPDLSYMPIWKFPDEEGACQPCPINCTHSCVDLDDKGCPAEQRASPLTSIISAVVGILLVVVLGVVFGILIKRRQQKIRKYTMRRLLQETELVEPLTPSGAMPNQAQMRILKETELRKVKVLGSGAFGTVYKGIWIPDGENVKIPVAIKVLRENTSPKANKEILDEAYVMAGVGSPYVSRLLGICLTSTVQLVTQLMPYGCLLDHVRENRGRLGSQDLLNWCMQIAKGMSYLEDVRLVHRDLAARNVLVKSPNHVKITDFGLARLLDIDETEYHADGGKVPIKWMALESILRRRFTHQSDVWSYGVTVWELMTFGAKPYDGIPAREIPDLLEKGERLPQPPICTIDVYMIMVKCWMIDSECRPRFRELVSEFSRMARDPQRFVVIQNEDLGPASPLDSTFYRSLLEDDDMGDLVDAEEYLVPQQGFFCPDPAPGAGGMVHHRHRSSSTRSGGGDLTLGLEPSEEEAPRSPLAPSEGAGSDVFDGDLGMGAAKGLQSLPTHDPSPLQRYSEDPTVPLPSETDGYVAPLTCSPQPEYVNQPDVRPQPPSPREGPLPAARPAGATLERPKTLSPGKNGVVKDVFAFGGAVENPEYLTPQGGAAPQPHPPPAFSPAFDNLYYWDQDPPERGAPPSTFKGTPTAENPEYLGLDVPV

IC50 [1] [nM] | IC50 [2] [nM] | Structure (SMILES)
530 | 13800 | Cc1c(/C=C2\C(=O)Nc3cccc(-c4cccc(Cl)c4F)c32)[nH]c2c1C(=O)N(CCN1CCCC1)CC2 [Example 68, 2-[4-(3-Chloro-2-fluoro-phenyl)-2-oxo-1,2-dihydro-indol-3-ylidenemethyl]-3-methyl-5-(2-pyrrolidin-1-yl-ethyl)-1,5,6,7-tetrahydro-pyrrolo[3,2-e]pyridin-4-one]
910 | 200 | Cc1c(/C=C2\C(=O)Nc3cccc(Br)c32)[nH]c2c1C(=O)N(CCN1CCCC1)CC2 [Example 69, 2-(4-Bromo-2-oxo-1,2-dihydro-indol-3-ylidenemethyl)-3-methyl-5-(2-pyrrolidin-1-yl-ethyl)-1,5,6,7-tetrahydro-pyrrolo[3,2-c]pyridin-4-one]
1090 | 590 | Cc1c(/C=C2\C(=O)Nc3cccc(C4CCNCC4)c32)[nH]c2c1C(=O)N(CCN1CCCC1)CC2 [Example 71, 3-Methyl-2-(2-oxo-4-piperidin-4-yl-1,2-dihydro-indol-3-ylidenemethyl)-5-(2-pyrrolidin-1-yl-ethyl)-1,5,6,7-tetrahydro-pyrrolo[3,2-c]pyridin-4-one]
